{"source": "patent US20100266716A1", "about": "“Natural Photodynamic Agents and their use” (priority 2007, published 2010)", "assay_type_in_all_cases": "cell-based", "key": {"Salmonella choleraesuis [1]": {"system": "Salmonella choleraesuis", "assay": "MBEC device biofilm photodynamic killing (Example 1)", "parameters": "key to Killing of Salmonella cholerasuis biofilm (eradication or growth): “−” = biofilm eradication at the mentioned conditions (concentration, exposure time and Light source); “+” = biofilm growth", "details": "for Killing of Salmonella cholerasuis biofilm (eradication or growth): 16 Hours exposure", "source_text": "(§1) Test microorganisms included Salmonella choleraesuis, Staphylococcus aureus, foodborne pathogens of humans. Test Compounds included Methylene blue, Hemoglobin (blood product), Hemin (blood product), Protoporphyrin (blood product), Annatto Extract (15% Norbixin), beet juice, Canthaxanthin (10%), Beta-carotene (1%), Purple carmine 50%, Carmine lake 60%, Black Carrot extract, Tomato lycopene (5%), sodium copper chlorophyllin, grape skin extract, paprika oleoresin, riboflavin, saffron, titanium dioxide, FD&C blue No1., turmeric oleoresin, FD&C blue No. 2, FD&C Green No. 3, FD&C Red No. 2 (Amaranth), FD&C Red No. 40, FD&C Yellow No. 5, and FD&C Yellow No. 6. Compounds were prepared as 1%, 0.1%, 0.01%, by weight, dissolved in water.\n(§2) The light source was a full spectrum fluorescent light or LED light and the contact time was 1 and 16 hours. The study temperature was 37° C.\n(§3) Approximately 10^6 organisms in 150 uL Cation Adjusted Mueller Hinton Broth (CAMHB) were placed in each of the wells of a 96 peg MBEC device. The lid of the 96 peg MBEC device was placed on the bottom plate containing organism. The device was placed on a shaker, set to 110 rpm, and incubated at 37° C. for 24 hours to produce biofilms.\n(§4) The challenge plates were set up using a sterile 96-well microtitre plate using aseptic techniques in the following manner (one organism per plate, per light exposure time, per light source). Test solutions (200 uL) were placed into each well. The lid was transferred to the challenge plate and exposed to the various light sources for the prescribed exposure times (16 hours). Following the treatment, the pegs were transferred to the recovery media (“recovery plate”) then wrapped in tin foil and incubated at 37° C. for 18 to 24 hours. The recovery plate(s) was wrapped in tin foil, incubated at 37° C. for 24 hours and read visually and by a plate reader, set to an optical density measurement of 630 nm, to determine Minimum Biofilm Eradication Concentration (MBEC) by looking at growth or no growth."}, "Staphylococcus aureus [2]": {"system": "Staphylococcus aureus", "assay": "MBEC device biofilm photodynamic killing (Example 1)", "parameters": "key to Killing of Staph aureus biofilm (eradication or growth): “−” = biofilm eradication at the mentioned conditions (concentration, exposure time and Light source); “+” = biofilm growth", "details": "for Killing of Staph aureus biofilm (eradication or growth): 16 Hours exposure", "source_text": "as §1, §2, §3, §4"}, "E. coli 0157H7": {"system": "E. coli 0157H7", "assay": "Photocatalytic food dyes Log10 counts (Example 2)", "source_text": "as §1, §2, §3, §4\n(§5) The test was conducted as shown in Example 1, but using Hemin (blood product), Protoporphyrin (blood product), Annatto Extract, and Turmeric. The group of tests organism also included E. Coli 0157H7."}, "Salmonella choleraesuis [3]": {"system": "Salmonella choleraesuis", "assay": "Photocatalytic food dyes Log10 counts (Example 2)", "details": "S. choleraesuis, Control 7.28", "source_text": "as §1, §2, §3, §4, §5"}, "Staphylococcus aureus [4]": {"system": "Staphylococcus aureus", "assay": "Photocatalytic food dyes Log10 counts (Example 2)", "details": "Staph. aureus", "source_text": "as §1, §2, §3, §4, §5"}}, "data": [{"substance": "Protoporphyrin", "values": [{"measurement": "Killing of Salmonella cholerasuis biofilm (eradication or growth)", "setting": "Salmonella choleraesuis [1]; Fluorescent Light, 0.01%", "value": "−"}, {"measurement": "Killing of Salmonella cholerasuis biofilm (eradication or growth)", "setting": "Salmonella choleraesuis [1]; Fluorescent Light, 0.1%", "value": "−"}, {"measurement": "Killing of Salmonella cholerasuis biofilm (eradication or growth)", "setting": "Salmonella choleraesuis [1]; Fluorescent Light, 1%", "value": "−"}, {"measurement": "Killing of Salmonella cholerasuis biofilm (eradication or growth)", "setting": "Salmonella choleraesuis [1]; LED Light, 0.01%", "value": "+"}, {"measurement": "Killing of Salmonella cholerasuis biofilm (eradication or growth)", "setting": "Salmonella choleraesuis [1]; LED Light, 0.1%", "value": "+"}, {"measurement": "Killing of Salmonella cholerasuis biofilm (eradication or growth)", "setting": "Salmonella choleraesuis [1]; LED Light, 1%", "value": "−"}, {"measurement": "concentration at which useful against Salmonella", "setting": "Salmonella choleraesuis [1]; LED light", "value": "greater than 1%"}, {"measurement": "effective as photodynamic agent in killing biofilm organisms", "setting": "Salmonella choleraesuis [1]; Salmonella choleraesuis and Staphylococcus aureus biofilm, summary of Table 1", "value": "Effective"}, {"measurement": "concentration at which useful against Salmonella", "setting": "Salmonella choleraesuis [1]; fluorescent light", "value": "greater than 0.01%"}, {"measurement": "Killing of Staph aureus biofilm (eradication or growth)", "setting": "Staphylococcus aureus [2]; Fluorescent Light, 0.01%", "value": "+"}, {"measurement": "Killing of Staph aureus biofilm (eradication or growth)", "setting": "Staphylococcus aureus [2]; Fluorescent Light, 0.1%", "value": "+"}, {"measurement": "Killing of Staph aureus biofilm (eradication or growth)", "setting": "Staphylococcus aureus [2]; Fluorescent Light, 1%", "value": "+"}, {"measurement": "Killing of Staph aureus biofilm (eradication or growth)", "setting": "Staphylococcus aureus [2]; LED Light, 0.01%", "value": "+"}, {"measurement": "Killing of Staph aureus biofilm (eradication or growth)", "setting": "Staphylococcus aureus [2]; LED Light, 0.1%", "value": "+"}, {"measurement": "Killing of Staph aureus biofilm (eradication or growth)", "setting": "Staphylococcus aureus [2]; LED Light, 1%", "value": "+"}, {"measurement": "concentration at which useful against Staph A", "setting": "Staphylococcus aureus [2]; fluorescent light", "value": "greater than 0.1%"}, {"measurement": "Average Log10 counts", "setting": "E. coli 0157H7; Fluorescent Light 16 hours, 0.01%, Control 6.51", "value": 0.44, "unit": "Log10"}, {"measurement": "Average Log10 counts", "setting": "E. coli 0157H7; Fluorescent Light 16 hours, 0.1%, Control 6.51", "value": 0.57, "unit": "Log10"}, {"measurement": "Average Log10 counts", "setting": "E. coli 0157H7; Fluorescent Light 16 hours, 1%, Control 6.51", "value": 0.00, "unit": "Log10"}, {"measurement": "Average Log10 counts", "setting": "E. coli 0157H7; LED Light 16 hours, 0.01%, Control 6.36", "value": 4.04, "unit": "Log10"}, {"measurement": "Average Log10 counts", "setting": "E. coli 0157H7; LED Light 16 hours, 0.1%, Control 6.36", "value": 3.48, "unit": "Log10"}, {"measurement": "Average Log10 counts", "setting": "E. coli 0157H7; LED Light 16 hours, 1%, Control 6.36", "value": 3.60, "unit": "Log10"}, {"measurement": "Average Log10 counts", "setting": "Salmonella choleraesuis [3]; Fluorescent Light 16 hours, 0.01%", "value": 2.10, "unit": "Log10"}, {"measurement": "Average Log10 counts", "setting": "Salmonella choleraesuis [3]; Fluorescent Light 16 hours, 0.1%", "value": 2.33, "unit": "Log10"}, {"measurement": "Average Log10 counts", "setting": "Salmonella choleraesuis [3]; Fluorescent Light 16 hours, 1%", "value": 3.32, "unit": "Log10"}, {"measurement": "Average Log10 counts", "setting": "Salmonella choleraesuis [3]; LED Light 16 hours, 0.01%", "value": 3.40, "unit": "Log10"}, {"measurement": "Average Log10 counts", "setting": "Salmonella choleraesuis [3]; LED Light 16 hours, 0.1%", "value": 3.67, "unit": "Log10"}, {"measurement": "Average Log10 counts", "setting": "Salmonella choleraesuis [3]; LED Light 16 hours, 1%", "value": 2.92, "unit": "Log10"}, {"measurement": "Average Log10 counts", "setting": "Staphylococcus aureus [4]; Fluorescent Light 16 hours, 0.01%, Control 6.48", "value": 0.00, "unit": "Log10"}, {"measurement": "Average Log10 counts", "setting": "Staphylococcus aureus [4]; Fluorescent Light 16 hours, 0.1%, Control 6.48", "value": 0.00, "unit": "Log10"}, {"measurement": "Average Log10 counts", "setting": "Staphylococcus aureus [4]; Fluorescent Light 16 hours, 1%, Control 6.48", "value": 0.00, "unit": "Log10"}, {"measurement": "Average Log10 counts", "setting": "Staphylococcus aureus [4]; LED Light 16 hours, 0.01%, Control 6.95", "value": 1.29, "unit": "Log10"}, {"measurement": "Average Log10 counts", "setting": "Staphylococcus aureus [4]; LED Light 16 hours, 0.1%, Control 6.95", "value": 0.50, "unit": "Log10"}, {"measurement": "Average Log10 counts", "setting": "Staphylococcus aureus [4]; LED Light 16 hours, 1%, Control 6.95", "value": 3.10, "unit": "Log10"}]}, {"substance": "sodium copper chlorophyllin", "values": [{"measurement": "Killing of Salmonella cholerasuis biofilm (eradication or growth)", "setting": "Salmonella choleraesuis [1]; Fluorescent Light, 0.01%", "value": "+"}, {"measurement": "Killing of Salmonella cholerasuis biofilm (eradication or growth)", "setting": "Salmonella choleraesuis [1]; Fluorescent Light, 0.1%", "value": "+"}, {"measurement": "Killing of Salmonella cholerasuis biofilm (eradication or growth)", "setting": "Salmonella choleraesuis [1]; Fluorescent Light, 1%", "value": "+"}, {"measurement": "Killing of Salmonella cholerasuis biofilm (eradication or growth)", "setting": "Salmonella choleraesuis [1]; LED Light, 0.01%", "value": "+"}, {"measurement": "Killing of Salmonella cholerasuis biofilm (eradication or growth)", "setting": "Salmonella choleraesuis [1]; LED Light, 0.1%", "value": "+"}, {"measurement": "Killing of Salmonella cholerasuis biofilm (eradication or growth)", "setting": "Salmonella choleraesuis [1]; LED Light, 1%", "value": "+"}, {"measurement": "Killing of Staph aureus biofilm (eradication or growth)", "setting": "Staphylococcus aureus [2]; Fluorescent Light, 0.01%", "value": "+"}, {"measurement": "Killing of Staph aureus biofilm (eradication or growth)", "setting": "Staphylococcus aureus [2]; Fluorescent Light, 0.1%", "value": "+"}, {"measurement": "Killing of Staph aureus biofilm (eradication or growth)", "setting": "Staphylococcus aureus [2]; Fluorescent Light, 1%", "value": "+"}, {"measurement": "Killing of Staph aureus biofilm (eradication or growth)", "setting": "Staphylococcus aureus [2]; LED Light, 0.01%", "value": "+"}, {"measurement": "Killing of Staph aureus biofilm (eradication or growth)", "setting": "Staphylococcus aureus [2]; LED Light, 0.1%", "value": "+"}, {"measurement": "Killing of Staph aureus biofilm (eradication or growth)", "setting": "Staphylococcus aureus [2]; LED Light, 1%", "value": "+"}]}]}
